Experimental data as given in patent US10357574B2, “Optical sensor conjugates for detecting reactive oxygen and/or reactive nitrogen species in vivo” (The General Hospital Corporation, priority 2010, dated 2019).

Test system: infarcted mouse hearts
Assay: Mouse model of myocardial infarction (permanent coronary ligation), fluorescence imaging of heart sections
Type: in vivo, mice (C57/B6)
Conditions: injected intravenously into the tail-vein 12-14 hours after MI, imaged 24 hours later
Experimental: To investigate the utility of the optical sensor conjugate in vivo, we determined the ability of the sensor to monitor ischemia and inflammation as a result of permanent coronary ligation in a mouse model of myocardial infarction. For all experiments, the agents (optical sensor conjugate or fluorogenic small molecule with linker) were injected intravenously into the tail-vein of the mice 12-14 hours after MI and imaged 24 hours later when neutrophil recruitment to the infarct is high.
Anesthesized mice were intubated and a thoracotomy was performed in the 4th left intercostal space to visualize the left ventricle where the left coronary artery was ligated. […]
Hearts were excised and rinsed in PBS and cut into myocardial rings of 1-mm thickness and either immediately stained with 2-3-5-triphenyl tetrazolium chloride (TTC) (Nahrendorf et al. Circulation, 113:1196-202 (2006)) to highlight the infarcted tissue or used for histological analysis. Fluorescence reflectance imaging of side-by-side myocardial rings of controls and injected hearts was performed in the GFP channel (lexc=450-480 nm with lem 500-530 nm) and Cy5 channel (lexc=620-650 nm with lem=680-710 nm) using an Olympus OV-100 system (Olympus, Center Valley, Pa.). For histology and fluorescence microscopy, the tissue was embedded in OCT medium (Sakura Finetek, Torrance, Calif.). […]

CCN(CC)c1ccc2c(c1)Oc1cc(N(CC)CC)ccc1N2C(=O)CCCC(=O)O [small molecule probe, sodium 5-(3,7-bis(diethylamino)-10H-phenoxazin-10-yl)-5-oxopentanoate]
localization of fluorescence in coronal heart sections (fluorescence reflectance imaging): washed out of the infarct and into the myocardium
